Laboratory results as given in patent publication US10975056B2 (GlaxoSmithKline Intellectual Property Development Limited, priority 2016, dated 2021).
Values joined by “and” are separate entries in the source; they are usually repeats but may differ in a detail not shown here. Equal values may be shown once. Where a name gives a salt, the structure may show the parent alone. Read-outs that look alike come from different tables or passages of the source.

Experiments:
[1] = system: erythroid progenitor cells (EPCs); experiment: Fetal hemoglobin (HbF) ELISA in day 7 erythroid progenitor cells; format: cell-based, human; details: Homo sapiens, Erythroid progenitor cell, HbF ELISA, day 7 EPCs, 5 days; read-out: EPC ELISA (pEC50 category) (converted)
Description: Day 7 EPCs were cultured in duplicate plates with serially diluted Compound A for 5 days at 37° C. Wells were then analyzed for either induction of fetal hemoglobin (HbF,HbF ELISA) or cell growth (Cell Titer-Glo). In both cases, signal was normalized to vehicle-control treated cells.
Culture, Expansion, and Characterization of Day 7 Erythroid Progenitor Cells (EPC)s
All donors provided written informed consent for use of their samples, and the collection and use of the samples received institutional review board approval. All cryopreserved human bone marrow CD34+ cells used here were obtained from AlICells (Emeryville, Calif.) and were generally from different donors. The CD34+ cells were cultured to generate EPCs at day 7. Briefly, 1 million cells were cultured in 5% CO2, 5% O2 at 37° C. in H3000 Stemspan media (StemCell Technologies Vancouver, BC, Canada) supplemented with 2 mM L-glutamine, 40 μg/mL human low-density lipoproteins (StemCell Technologies), 10 ng/mL recombinant human (rh) interleukin IL-3 (R&D Systems, Minneapolis, Minn.), 100 ng/mL rh stem cell factor (R&D Systems), and 0.5 U/mL rh erythropoietin (Invitrogen, Grand Island, N.Y.). Cells were split and refed on day 4 with complete culture media described above and harvested on day 7 for evaluation of erythroid marker expression and assessment of γ-globin induction. Day 7 EPCs were then frozen in liquid nitrogen at 5 to 10 million cells/mL in 95% fetal bovine serum (FBS; Invitrogen) with 5% DMSO for subsequent use.
At the time of compound treatment, frozen day 7 EPCs prepared as described above were thawed, washed once and re-suspended in complete culture media as described above with the exception of an increase of rhEPO to 3 U/mL. Cells were counted and diluted to […] for plating into assay plates. Cells were then dispensed, at 30 μL per well with Multidrop™ Combi Reagent Dispenser (Thermo Scientific), into 384-well cell culture plates into which test compounds were pre-dispensed at 100 nL/well. Black Clear Bottom (Greiner Bio-One; 781090) and White (Greiner Bio-One; 781080) plates were used for ELISA and Cell Titer-Glo assays, respectively. The final cell density in the assays is 1,000 cells per well, with final compound concentrations between 33 nM (highest) and […] (lowest) for the 22-points serial dilution.
Fetal Hemoglobin (HbF) ELISA
Coating anti-HbF Ab (Bethyl Lab; cat. A80-136A) was diluted by 100-fold in the coating buffer (0.05 M carbonate-bicarbonate, pH 9.6), and then 20 μL/well was added to a 384-well MaxiSorp ELISA plate (Thermo Fisher; cat. 464718). After 1 hour incubation at room temperature, the plates were washed twice with ELISA washing buffer (50 mM Tris, 0.05% Tween 20, pH 8.0) with an EL406 plate washer (BioTek, Winooski, Vt.). Then, 40 μL/well of blocking buffer consisting of 50 mM Tris and 1% BSA (pH 8.0) was added to the plate and stored at 4° C. with cover sheet overnight, or until time of the assay. The coated ELISA plates were stable for up to 30 days at 4° C. On the day of assay, the plates were washed twice with ELISA washing buffer prior to addition of cell lysate.
After 5 days at 37° C. with 5% CO2 cell culture plates for ELISA assay were put into −80° C. freezer for a minimum of 2 hours. After thawing at room temperature, 30 μL of cell lysis buffer (Invitrogen; cat. FNN0011, supplemented with 1× protease inhibitor) was added to each well and the resulting cell lysate was mixed eight times with a Cybi-Well (Jena, Germany) pipettor. Following the mixing procedure, 20 μL/well of lysate was transferred to the coated ELISA plates described above followed by a 1 hour incubation at room temperature. The ELISA assay plates were washed three times with ELISA wash buffer. 20 μL per well of 1:75,000 to 100,000 diluted horseradish peroxidase (HRP) conjugate detection antiHbF Ab (Bethyl Labs; cat. A80-136P, diluted in 50 mM Tris [pH 8.0], 1% BSA, 0.05% Tween-20) was then added. […]

DNMT1 = DNMT1 (Homo sapiens, UniProt P26358); experiment: DNMT1 biochemical activity, breaklight assay and/or SPA assay
Description: DNMT1 breaklight in vitro assays were conducted in a total volume of 50 μl in a standard 384 well format, using black non-binding surface microplates (Corning 3575). […] Negative control wells used 5 μl of DNMT1 and 5 μl of oligonucleotide but 0 μM SAM. All reagents were made up in 1× assay buffer (20 mM Tris pH 6.8, 25 mM NaCl, 0.5 mM MgCl2, 0.01% Triton X100 and 1 mM DTT). The reaction was incubated at 26° C. for 45 min and then stopped with the addition of 40 μl detection reagent. Detection reagent, made up in 1× Gla assay buffer (20 mM Tris pH 8.0, 80 mM NaCl, 0.75 mM MgCl2, 0.01% Triton X100 and 1 mM DTT) has a final concentration of 100 μM SAH (Sigma #A9384) and 0.0008 units/μl Gla1 restriction endonuclease (Sibenzyme #E494). Following addition of the detection reagent the plate was incubated in the dark at room temperature for 5 hr. Fluorescence intensity was then measured on the PHERAstar FS (BMG Labtech) at Ex 485 nm and Em 520 nm, with a gain of 400 and an integration time of 100 ms.
Biochemical activity of DNMT1 analyzed using SPA technology. Plates (Griener 784075) were pre-stamped with 100 nL/well of compound (11-point, 3-fold serial dilution). […] Low control wells contained 5 μL of buffer instead of enzyme. Following a 40 minute incubation, the reaction was quenched upon the addition of 10 μL of stop mixture containing 1 mM SAM (Sigma A7007) and 2 mg/mL PEI beads (Perkin Elmer RPNQ0098). Plates were sealed, centrifuged for 1 min and then read on a Viewlux (Perkin Elmer) using the 613 nm emission filter/300 s read time following a 30 minute dark adapt. Assay conditions prior to quench consisted of 40 nM DNMT1 (601-1600, produced internally), 100 nM 3H-SAM (American Radiolabeled Chemicals ART 0288), 900 nM SAM (New England BioLabs B9003S) and 200 nM hemi methylated DNA oligonucleotide (synthesized at Integrated DNA Technologies, 5′-[…]-3′) in 50 mM HEPES (pH 8.0), 2 mM MgCl2, 1 mM DTT, 0.01% NP-40 and 0.01% BSA.
Comments • 1. […] Where a field is empty, the compound was not tested in that assay.

[2] = binned activity in either the breaklight or the SPA assay, read-out: DNMT1 BioChemical (pIC50 category) (converted)
[3] = binned activity in either the breaklight or the SPA assay

DNMT1, sequence (P26358 whole entry, looked up): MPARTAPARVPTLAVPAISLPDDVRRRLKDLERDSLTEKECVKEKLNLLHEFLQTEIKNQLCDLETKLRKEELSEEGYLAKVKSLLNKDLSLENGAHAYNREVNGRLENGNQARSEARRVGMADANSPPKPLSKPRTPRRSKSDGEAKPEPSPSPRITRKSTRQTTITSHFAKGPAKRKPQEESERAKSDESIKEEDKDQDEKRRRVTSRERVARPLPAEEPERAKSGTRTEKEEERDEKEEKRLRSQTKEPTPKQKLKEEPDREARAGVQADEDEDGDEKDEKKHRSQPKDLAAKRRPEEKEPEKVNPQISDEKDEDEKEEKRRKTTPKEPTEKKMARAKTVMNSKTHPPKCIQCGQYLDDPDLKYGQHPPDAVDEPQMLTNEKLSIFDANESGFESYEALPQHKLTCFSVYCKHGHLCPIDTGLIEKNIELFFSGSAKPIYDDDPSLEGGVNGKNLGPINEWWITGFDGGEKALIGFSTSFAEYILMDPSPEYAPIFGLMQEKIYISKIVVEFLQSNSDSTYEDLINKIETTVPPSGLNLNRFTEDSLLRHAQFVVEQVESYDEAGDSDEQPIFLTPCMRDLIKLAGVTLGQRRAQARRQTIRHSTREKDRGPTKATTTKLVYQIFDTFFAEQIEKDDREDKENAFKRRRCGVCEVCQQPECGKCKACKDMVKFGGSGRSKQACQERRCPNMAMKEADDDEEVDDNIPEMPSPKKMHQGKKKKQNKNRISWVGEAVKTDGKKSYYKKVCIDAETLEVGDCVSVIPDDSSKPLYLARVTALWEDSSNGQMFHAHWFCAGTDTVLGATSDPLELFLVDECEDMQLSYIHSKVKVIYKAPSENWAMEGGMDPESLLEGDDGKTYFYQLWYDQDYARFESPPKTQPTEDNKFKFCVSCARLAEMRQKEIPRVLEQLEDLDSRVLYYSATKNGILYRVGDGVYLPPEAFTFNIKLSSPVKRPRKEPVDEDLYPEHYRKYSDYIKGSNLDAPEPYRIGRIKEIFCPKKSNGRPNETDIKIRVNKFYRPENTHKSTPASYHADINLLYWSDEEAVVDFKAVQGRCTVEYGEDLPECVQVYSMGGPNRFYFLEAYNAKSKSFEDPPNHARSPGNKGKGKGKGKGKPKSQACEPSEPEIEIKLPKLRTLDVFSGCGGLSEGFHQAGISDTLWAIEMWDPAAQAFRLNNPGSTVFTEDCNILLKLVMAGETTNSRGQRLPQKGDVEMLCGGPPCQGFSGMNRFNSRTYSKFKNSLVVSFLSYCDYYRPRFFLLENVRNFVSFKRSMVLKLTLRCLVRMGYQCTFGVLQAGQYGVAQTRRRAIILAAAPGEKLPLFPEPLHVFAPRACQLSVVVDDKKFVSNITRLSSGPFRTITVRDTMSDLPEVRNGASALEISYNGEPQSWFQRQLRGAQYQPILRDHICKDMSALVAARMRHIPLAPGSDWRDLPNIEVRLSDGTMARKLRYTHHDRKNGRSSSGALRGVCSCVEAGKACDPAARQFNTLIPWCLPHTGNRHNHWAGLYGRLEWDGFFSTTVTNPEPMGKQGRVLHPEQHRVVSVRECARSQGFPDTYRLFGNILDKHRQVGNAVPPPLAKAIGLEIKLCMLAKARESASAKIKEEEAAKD

CCc1c(C#N)c(SC(C(N)=O)c2ccccc2)nc(N2CC[C@@H](N)[C@H](F)C2)c1C#N (relative stereo) [Example 508, rel-2-((6-(trans)-4-amino-3-fluoropiperidin-1-yl)-3,5-dicyano-4-ethylpyridin-2-yl)thio)-2-phenylacetamide]
EC50 [1]: < 316 nM | IC50 (DNMT1; [2]): < 316 nM

CCc1c(C#N)c(SC(C(N)=O)c2ccccc2)nc(N2CC[C@@H](N)[C@@H](F)C2)c1C#N (relative stereo) [Example 545, rel-2-((6-cis-4-amino-3-fluoropiperidin-1-yl)-3,5-dicyano-4-ethylpyridin-2-yl)thio)-2-phenylacetamide]
EC50 [1]: < 316 nM | IC50 (DNMT1; [2]): < 316 nM

CCc1c(C#N)c(SCc2ccc(CNC(=O)CN)cc2)nc(N2CC[C@@H](N)[C@@H](F)C2)c1C#N (relative stereo) [Example 546, rel-2-amino-N-(4-(((6-(cis-4-amino-3-fluoropiperidin-1-yl)-3,5-dicyano-4-ethylpyridin-2-yl)thio)methyl)benzyl)acetamide]
EC50 [1]: < 316 nM | IC50 (DNMT1; [2]): 316 to 1000 nM | IC50 (DNMT1; breaklight assay and/or SPA assay, repeated experimental runs, read-out: average pIC50 against DNMT1 (converted)): 316 to 1000 nM and 398 nM

CCc1c(C#N)c(S[C@@H](C(N)=O)c2ccccc2)nc(N(C)CC(N)=O)c1C#N (single isomer, unassigned) [Example 413, 2-((6-((2-amino-2-oxoethyl)(methyl)amino)-3,5-dicyano-4-ethylpyridin-2-yl)thio)-2-phenylacetamide]
EC50 [1]: < 316 nM | IC50 (DNMT1; [2]): < 316 nM

CCc1c(C#N)c(S[C@@H](C(N)=O)c2ccccc2)nc(N(C)CCO)c1C#N (single isomer, unassigned) [Example 431]
EC50 [1]: < 316 nM | DNMT1 BioChemical (pIC50 category) (DNMT1; [3]): D (Category D: ≥6.5)

CCc1c(C#N)c(SC(C(N)=O)c2ccccc2)nc(N2CCC(N3CCC[C@@H]3CO)CC2)c1C#N (single isomer, unassigned) [Example 464]
EC50 [1]: < 316 nM | DNMT1 BioChemical (pIC50 category) (DNMT1; [3]): D (Category D: ≥6.5)

CCc1c(C#N)c(S[C@H](C(N)=O)c2ccc(F)cc2)nc(N2CCC(N(C)C)CC2)c1C#N (single isomer, unassigned) [Example 465, 2-((3,5-dicyano-6-(4-(dimethylamino)piperidin-1-yl)-4-ethylpyridin-2-yl)thio)-2-(4-fluorophenyl)acetamide, Formic acid salt]
EC50 [1]: < 316 nM | DNMT1 BioChemical (pIC50 category) (DNMT1; [3]): D (Category D: ≥6.5)

CCc1c(C#N)c(SC(C(N)=O)c2ccccc2)nc(N2CC[C@@H](NC(=O)OC(C)(C)C)[C@@H](F)C2)c1C#N (single isomer, unassigned) [Example 534, rel-tert-butyl (cis)-1-(6-((2-amino-2-oxo-1-phenylethyl)thio)-3,5-dicyano-4-ethylpyridin-2-yl)-3-fluoropiperidin-4-yl)carbamate]
EC50 [1]: < 316 nM | IC50 (DNMT1; [2]): < 316 nM

CCc1c(C#N)c(S[C@H](C(N)=O)c2ccccc2)nc(N2CCC(C)(N)CC2)c1C#N (single isomer, unassigned) [Example 608, 2-((6-(4-amino-4-methylpiperidin-1-yl)-3,5-dicyano-4-ethylpyridin-2-yl)thio)-2-phenylacetamide]
EC50 [1]: < 316 nM | DNMT1 BioChemical (pIC50 category) (DNMT1; [3]): D (Category D: ≥6.5)

CCc1c(C#N)c(SC(C(N)=O)c2ccccc2)nc(N2CCC(N)CC2)c1C#N (stereo not drawn) [Example 143, 2-((6-(4-Aminopiperidin-1-yl)-3,5-dicyano-4-ethylpyridin-2-yl)thio)-2-phenylacetamide]
EC50 [1]: < 316 nM

[2H]C(Sc1nc(N(C)C)c(C#N)c(CC)c1C#N)(C(N)=O)c1ccccc1 (stereo not drawn) [Example 305, 2-((3,5-Dicyano-6-(dimethylamino)-4-ethylpyridin-2-yl)thio)-2-phenylacetamide-2-d]
EC50 [1]: 316 to 1000 nM

[2H][C@](Sc1nc(N(C)C)c(C#N)c(CC)c1C#N)(C(N)=O)c1ccccc1 [Example 308, (R)-2-((3,5-Dicyano-6-(dimethylamino)-4-ethylpyridin-2-yl)thio)-2-phenylacetamide-2-d]
EC50 [1]: 316 to 1000 nM

[2H]C([2H])([2H])N(c1nc(SC(C(N)=O)c2ccccc2)c(C#N)c(CC)c1C#N)C([2H])([2H])[2H] (stereo not drawn) [Example 404, 2-((3,5-Dicyano-6-(dimethylamino-d6)-4-ethylpyridin-2-yl)thio)-2-phenylacetamide]
EC50 [1]: 316 to 1000 nM

CCc1c(C#N)c(S[C@@H](C(N)=O)c2ccccc2)nc(N2CCC(N)CC2)c1C#N [Example 412, (R)-2-((6-(4-aminopiperidin-1-yl)-3,5-dicyano-4-ethylpyridin-2-yl)thio)-2-phenylacetamide, Hydrochloride]
EC50 [1]: < 316 nM

CCc1c(C#N)c(SC(C(N)=O)c2ccccc2)nc(N2CCC(NCC3(C)CCC3)CC2)c1C#N (stereo not drawn) [Example 466, 2-((3,5-dicyano-4-ethyl-6-(4-(((1-methylcyclobutyl)methyl)amino)piperidin-1-yl)pyridin-2-yl)thio)-2-phenylacetamide]
EC50 [1]: < 316 nM

CCc1c(C#N)c(S[C@H](C(N)=O)c2ccccc2)nc(N2CCC(N)CC2)c1C#N [Example 605, (S)-2-((6-(4-aminopiperidin-1-yl)-3,5-dicyano-4-ethylpyridin-2-yl)thio)-2-phenylacetamide, Hydrochloride]
EC50 [1]: < 316 nM

CCc1c(C#N)c(SC(C(N)=O)c2ccccc2)nc(N(C)CC(=O)N2CC[C@@H](CO)C2)c1C#N (stereo partly drawn) [Example 652, 2-((3,5-dicyano-4-ethyl-6-((2-((R)-3-(hydroxymethyl)pyrrolidin-1-yl)-2-oxoethyl)(methyl)amino)pyridin-2-yl)thio)-2-phenylacetamide]
EC50 [1]: < 316 nM
